Measured values taken from paper PMC6747129 (International Journal of Molecular Sciences, 2019).

Assays:
CYP3A4 [1] = biological target: T1, CYP3A4 (Homo sapiens, UniProt P08684); assay: in vitro; conditions: pH 7.4
CYP3A4 [2] = biological target: T1, CYP3A4; assay: biochemical
[3] = system: microsomal and recombinant CYP3A4; conditions: reversible and mechanism-based inhibition of CYP3A4; cited from earlier work
CYP3A4 [4] = biological target: T1, CYP3A4

T1 sequence (P08684 whole entry): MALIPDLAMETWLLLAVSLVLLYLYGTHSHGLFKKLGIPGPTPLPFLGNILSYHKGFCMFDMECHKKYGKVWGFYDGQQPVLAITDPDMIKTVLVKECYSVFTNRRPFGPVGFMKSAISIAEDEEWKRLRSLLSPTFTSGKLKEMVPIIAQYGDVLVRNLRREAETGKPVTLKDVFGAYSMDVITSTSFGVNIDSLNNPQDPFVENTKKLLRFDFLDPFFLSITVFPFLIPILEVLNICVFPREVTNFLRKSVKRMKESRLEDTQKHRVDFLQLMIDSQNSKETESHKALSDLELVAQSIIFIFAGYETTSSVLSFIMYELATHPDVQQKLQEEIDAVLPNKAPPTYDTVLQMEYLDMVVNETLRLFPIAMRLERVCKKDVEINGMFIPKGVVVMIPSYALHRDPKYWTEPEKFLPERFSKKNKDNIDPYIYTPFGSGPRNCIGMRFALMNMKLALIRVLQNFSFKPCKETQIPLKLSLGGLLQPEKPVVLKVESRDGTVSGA

Row | Kd (CYP3A4 [1]) [µM] | Kd (CYP3A4 [2]) [nM] | share of the total absorbance decrease (Soret band) due to occupation of the high affinity site (CYP3A4 [4]; DHB titration, two-site fit) | n, Hill coefficient (CYP3A4 [4]; sigmoidal fit of titration curve, ligand-free CYP3A4) | Compound | IC50 [3] [µM]
1 | 10.3 ± 1.4 | 220 ± 30 | ~ 17% |  | C/C(=C\COc1c2ccoc2cc2oc(=O)ccc12)CCC(O)C(C)(C)O (stereo not shown) [DHB, 6′,7′-dihydroxybergamottin] | 2 to 23
2 |  | 3000 ± 300 |  | 1.8 | CC(C)=CCC/C(C)=C/COc1c2ccoc2cc2oc(=O)ccc12 [bergamottin] | 2 to 23
